Assay results published in patent US10543212B2, “Substituted amines for treating cardiac diseases” (Cardurion Pharmaceuticals, LLC, priority 2017, dated 2020).

target: T1, Full-length, GST-tagged, human CaMKIIδ (Homo sapiens, UniProt Q13557); test: CaMKIIδ binding assay (TR-FRET with BODIPY-labeled probe ligand); settings: CaMKIIδ binding assay; activity class per Table 2
T1 construct: Full-Length, Glutathione-S-Transferase(GST)-Tagged, Human CaMKIIδ was purchased from Carna Biosciences; purchased Carna Biosciences 02-111
Method in brief: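 TR-FRET probe-displacement binding: 0.5 nM GST-CaMKIIδ with 10 μg/mL calmodulin, 1 mM CaCl2, 0.21 nM Tb-anti-GST Ab and 300 nM BODIPY probe in HEPES pH 7.6 buffer. Eight-point 4-fold dilutions, 1 hr at room temperature. IC50 from logistic fit; 100% inhibition defined by 3 μM parent compound.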

T1 sequence (Q13557 1-478 isoform Q13557-12): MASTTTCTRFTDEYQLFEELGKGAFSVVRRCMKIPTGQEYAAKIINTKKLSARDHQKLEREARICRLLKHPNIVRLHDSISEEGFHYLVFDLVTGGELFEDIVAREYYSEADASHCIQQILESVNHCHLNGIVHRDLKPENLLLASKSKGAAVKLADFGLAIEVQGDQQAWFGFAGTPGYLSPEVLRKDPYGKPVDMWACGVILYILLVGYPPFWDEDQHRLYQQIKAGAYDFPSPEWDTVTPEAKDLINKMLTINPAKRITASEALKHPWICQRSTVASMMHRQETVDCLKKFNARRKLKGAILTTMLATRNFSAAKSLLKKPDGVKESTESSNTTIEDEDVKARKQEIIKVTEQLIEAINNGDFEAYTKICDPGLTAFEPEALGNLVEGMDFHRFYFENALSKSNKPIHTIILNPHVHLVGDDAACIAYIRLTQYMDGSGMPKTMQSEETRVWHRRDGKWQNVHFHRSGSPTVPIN

Row | SMILES | IC50 [nM]
1 | CC(Cn1cnnn1)Oc1cc(-c2cnc(Nc3cn(C4CCC(O)(CN5CCOCC5)CC4)nc3C(F)(F)F)nc2)ccc1Cl [Example 918, trans-4-(4-((5-(3-(((S)-1-(1H-tetrazol-1-yl)propan-2-yl)oxy)-4-chlorophenyl)pyrimidin-2-yl)amino)-3-(trifluoromethyl)-1H-pyrazol-1-yl)-1-(morpholinomethyl)cyclohexan-1-ol] | < 10
2 | C[C@@H](Cn1cnnn1)Oc1cc(-c2cnc(Nc3cn(C4CC5(C4)CN(C(=O)OC(C)(C)C)C5)nc3C(F)(F)F)nc2)ccc1Cl [Example 919, tert-butyl (S)-6-(4-((5-(3-((1-(1H-tetrazol-1-yl)propan-2-yl)oxy)-4-chlorophenyl)pyrimidin-2-yl)amino)-3-(trifluoromethyl)-1H-pyrazol-1-yl)-2-azaspiro[3.3]heptane-2-carboxylate] | ≥ 100
3 | C[C@@H](Cn1cnnn1)Oc1cc(-c2cnc(Nc3cn(C4CC5(CNC5)C4)nc3C(F)(F)F)nc2)ccc1Cl [Example 920, (S)-5-(3-((1-(1H-tetrazol-1-yl)propan-2-yl)oxy)-4-chlorophenyl)-N-(1-(2-azaspiro[3.3]heptan-6-yl)-3-(trifluoromethyl)-1H-pyrazol-4-yl)pyrimidin-2-amine] | < 10
4 | C[C@@H](Cn1cnnn1)Oc1cc(-c2cnc(Nc3cn(C4CC5(C4)CN(C4CCC4)C5)nc3C(F)(F)F)nc2)ccc1Cl [Example 921, (S)-5-(3-((1-(1H-tetrazol-1-yl)propan-2-yl)oxy)-4-chlorophenyl)-N-(1-(2-cyclobutyl-2-azaspiro[3.3]heptan-6-yl)-3-(trifluoromethyl)-1H-pyrazol-4-yl)pyrimidin-2-amine] | < 10
5 | C[C@@H](Cn1cnnn1)Oc1cc(-c2cnc(Nc3cn(C4CC5(C4)CN(C4COC(C)(C)OC4)C5)nc3C(F)(F)F)nc2)ccc1Cl [Example 922, (S)-5-(3-((1-(1H-tetrazol-1-yl)propan-2-yl)oxy)-4-chlorophenyl)-N-(1-(2-(2,2-dimethyl-1,3-dioxan-5-yl)-2-azaspiro[3.3]heptan-6-yl)-3-(trifluoromethyl)-1H-pyrazol-4-yl)pyrimidin-2-amine] | < 10
6 | CC(Cn1cnnn1)Oc1cc(-c2cnc(Nc3cn(CC4(O)CCC(C)(O)CC4)nc3OCC(F)(F)F)nc2)ccc1Cl [Example 923, trans-1-((4-((5-(3-(((S)-1-(1H-tetrazol-1-yl)propan-2-yl)oxy)-4-chlorophenyl)pyrimidin-2-yl)amino)-3-(2,2,2-trifluoroethoxy)-1H-pyrazol-1-yl)methyl)-4-methylcyclohexane-1,4-diol] | < 10
7 | CC(Cn1cnnn1)Oc1cc(-c2cnc(Nc3cn(CC4(O)CCC(C)(O)CC4)nc3OCC(F)(F)F)nc2)ccc1Cl [Example 924, cis-1-((4-((5-(3-(((S)-1-(1H-tetrazol-1-yl)propan-2-yl)oxy)-4-chlorophenyl)pyrimidin-2-yl)amino)-3-(2,2,2-trifluoroethoxy)-1H-pyrazol-1-yl)methyl)-4-methylcyclohexane-1,4-diol] | < 10
8 | C[C@@H](Cn1cnnn1)Oc1cc(-c2cnc(Nc3cn(C4CC5(CNC5)C4)nc3OCC(F)(F)F)nc2)ccc1Cl [Example 925, (S)-5-(3-((1-(1H-tetrazol-1-yl)propan-2-yl)oxy)-4-chlorophenyl)-N-(1-(2-azaspiro[3.3]heptan-6-yl)-3-(2,2,2-trifluoroethoxy)-1H-pyrazol-4-yl)pyrimidin-2-amine] | < 10
9 | COc1ccc(Cn2cc(Nc3ncc(-c4ccc(Cl)c(O[C@@H](C)Cn5cnnn5)c4)cn3)c(OCC(F)(F)F)n2)cn1 [Example 926, (S)-5-(3-((1-(1H-tetrazol-1-yl)propan-2-yl)oxy)-4-chlorophenyl)-N-(1-((6-methoxypyridin-3-yl)methyl)-3-(2,2,2-trifluoroethoxy)-1H-pyrazol-4-yl)pyrimidin-2-amine] | < 10
10 | C[C@@H](Cn1cnnn1)Oc1cc(-c2cnc(Nc3cn(Cc4ccc(=O)[nH]c4)nc3OCC(F)(F)F)nc2)ccc1Cl [Example 927, (S)-5-((4-((5-(3-((1-(1H-tetrazol-1-yl)propan-2-yl)oxy)-4-chlorophenyl)pyrimidin-2-yl)amino)-3-(2,2,2-trifluoroethoxy)-1H-pyrazol-1-yl)methyl)pyridin-2(1H)-one] | < 10
11 | COc1cccc(Cn2cc(Nc3ncc(-c4ccc(Cl)c(O[C@@H](C)Cn5cnnn5)c4)cn3)c(OCC(F)(F)F)n2)n1 [Example 928, (S)-5-(3-((1-(1H-tetrazol-1-yl)propan-2-yl)oxy)-4-chlorophenyl)-N-(1-((6-methoxypyridin-2-yl)methyl)-3-(2,2,2-trifluoroethoxy)-1H-pyrazol-4-yl)pyrimidin-2-amine] | 10 to 100
12 | C[C@@H](Cn1cnnn1)Oc1cc(-c2cnc(Nc3cn(Cc4cccc(=O)[nH]4)nc3OCC(F)(F)F)nc2)ccc1Cl [Example 929, (S)-6-((4-((5-(3-((1-(1H-tetrazol-1-yl)propan-2-yl)oxy)-4-chlorophenyl)pyrimidin-2-yl)amino)-3-(2,2,2-trifluoroethoxy)-1H-pyrazol-1-yl)methyl)pyridin-2(1H)-one] | < 10
13 | C[C@@H](Cn1cnnn1)Oc1cc(-c2cnc(Nc3cn(C4CC5(C4)CN(C4CCOC4)C5)nc3C(F)(F)F)nc2)ccc1Cl (stereo partly drawn) [Example 930, 5-(3-(((S)-1-(1H-tetrazol-1-yl)propan-2-yl)oxy)-4-chlorophenyl)-N-(1-(2-(tetrahydrofuran-3-yl)-2-azaspiro[3.3]heptan-6-yl)-3-(trifluoromethyl)-1H-pyrazol-4-yl)pyrimidin-2-amine] | < 10
14 | CC(C)c1nn(C2CC3(C2)CN(C(=O)OC(C)(C)C)C3)cc1Nc1ncc(-c2ccc(Cl)c(O[C@@H](C)Cn3cnnn3)c2)cn1 [Example 931, tert-butyl (S)-6-(4-((5-(3-((1-(1H-tetrazol-1-yl)propan-2-yl)oxy)-4-chlorophenyl)pyrimidin-2-yl)amino)-3-isopropyl-1H-pyrazol-1-yl)-2-azaspiro[3.3]heptane-2-carboxylate] | 10 to 100
15 | C[C@@H](Cn1cnnn1)Oc1cc(-c2cnc(Nc3cn(C4CC5(C4)CN(C4COC(C)(C)OC4)C5)nc3OCC(F)(F)F)nc2)ccc1Cl [Example 932, (S)-5-(3-((1-(1H-tetrazol-1-yl)propan-2-yl)oxy)-4-chlorophenyl)-N-(1-(2-(2,2-dimethyl-1,3-dioxan-5-yl)-2-azaspiro[3.3]heptan-6-yl)-3-(2,2,2-trifluoroethoxy)-1H-pyrazol-4-yl)pyrimidin-2-amine] | < 10
16 | C[C@@H](Cn1cnnn1)Oc1cc(-c2cnc(Nc3cn(C4CC5(C4)CN(C4CCC4)C5)nc3OCC(F)(F)F)nc2)ccc1Cl [Example 933, (S)-5-(3-((1-(1H-tetrazol-1-yl)propan-2-yl)oxy)-4-chlorophenyl)-N-(1-(2-cyclobutyl-2-azaspiro[3.3]heptan-6-yl)-3-(2,2,2-trifluoroethoxy)-1H-pyrazol-4-yl)pyrimidin-2-amine] | < 10
17 | CC(C)c1nn(C2CC3(CNC3)C2)cc1Nc1ncc(-c2ccc(Cl)c(O[C@@H](C)Cn3cnnn3)c2)cn1 [Example 934, (S)-5-(3-((1-(1H-tetrazol-1-yl)propan-2-yl)oxy)-4-chlorophenyl)-N-(3-isopropyl-1-(2-azaspiro[3.3]heptan-6-yl)-1H-pyrazol-4-yl)pyrimidin-2-amine] | < 10
18 | CC(C)c1nn(C2CC3(C2)CN(C2COC2)C3)cc1Nc1ncc(-c2ccc(Cl)c(O[C@@H](C)Cn3cnnn3)c2)cn1 [Example 935, (S)-5-(3-((1-(1H-tetrazol-1-yl)propan-2-yl)oxy)-4-chlorophenyl)-N-(3-isopropyl-1-(2-(oxetan-3-yl)-2-azaspiro[3.3]heptan-6-yl)-1H-pyrazol-4-yl)pyrimidin-2-amine] | < 10
19 | CC(C)c1nn(C2CC3(C2)CN(C2CCOCC2)C3)cc1Nc1ncc(-c2ccc(Cl)c(O[C@@H](C)Cn3cnnn3)c2)cn1 [Example 936, (S)-5-(3-((1-(1H-tetrazol-1-yl)propan-2-yl)oxy)-4-chlorophenyl)-N-(3-isopropyl-1-(2-(tetrahydro-2H-pyran-4-yl)-2-azaspiro[3.3]heptan-6-yl)-1H-pyrazol-4-yl)pyrimidin-2-amine] | < 10
20 | C[C@@H](Cn1cnnn1)Oc1cc(-c2cnc(Nc3cn(C4CC5(C4)CN(C4(C)CCOCC4)C5)nc3OCC(F)(F)F)nc2)ccc1Cl [Example 937, (S)-5-(3-((1-(1H-tetrazol-1-yl)propan-2-yl)oxy)-4-chlorophenyl)-N-(1-(2-(4-methyltetrahydro-2H-pyran-4-yl)-2-azaspiro[3.3]heptan-6-yl)-3-(2,2,2-trifluoroethoxy)-1H-pyrazol-4-yl)pyrimidin-2-amine] | < 10
21 | C[C@@H](Cn1cnnn1)Oc1cc(-c2cnc(Nc3cn(C4CC5(C4)CN(C4CCOCC4)C5)nc3OCC(F)(F)F)nc2)ccc1C#N [Example 938, (S)-2-((1-(1H-tetrazol-1-yl)propan-2-yl)oxy)-4-(2-((1-(2-(tetrahydro-2H-pyran-4-yl)-2-azaspiro[3.3]heptan-6-yl)-3-(2,2,2-trifluoroethoxy)-1H-pyrazol-4-yl)amino)pyrimidin-5-yl)benzonitrile] | < 10
22 | C[C@@H](Cn1cnnn1)Oc1cc(-c2cnc(Nc3cn(C4CC5(C4)CN(C4CCOCC4)C5)nc3OCC(F)(F)F)nc2)ccc1C(F)F [Example 939, (S)-5-(3-((1-(1H-tetrazol-1-yl)propan-2-yl)oxy)-4-(difluoromethyl)phenyl)-N-(1-(2-(tetrahydro-2H-pyran-4-yl)-2-azaspiro[3.3]heptan-6-yl)-3-(2,2,2-trifluoroethoxy)-1H-pyrazol-4-yl)pyrimidin-2-amine] | < 10
23 | C[C@@H](Cn1cnnn1)Oc1cc(-c2cnc(Nc3cn([C@H]4C[C@H](NC(=O)OC(C)(C)C)C4)nc3OCC(F)(F)F)nc2)ccc1Cl [Example 940, tert-butyl (trans-3-(4-((5-(3-(((S)-1-(1H-tetrazol-1-yl)propan-2-yl)oxy)-4-chlorophenyl)pyrimidin-2-yl)amino)-3-(2,2,2-trifluoroethoxy)-1H-pyrazol-1-yl)cyclobutyl)carbamate] | 10 to 100
